Assay: Binding constants (pK) of L-p-BPA carbohydrate/polyol complexes by 1H-NMR integration of aromatic protons
Type: physicochemical
Conditions: 1H-NMR in D2O buffered to physiological pH (7.4); free L-p-BPA vs complex aromatic protons; three concentrations
Source text: For fructose and sorbose, or when a large excess of another carbohydrate or polyol is used, the p-BPA remains in solution at a pH of 7.4, and approximately 90% of the p-BPA is present as its sodium carboxylate, with the remainder as its free acid. A large excess of carbohydrate or polyol is preferred when pK is small; however, for complexes with a pK>about 3 a large excess in not need. The ratio of free p-BPA to p-BPA:carbohydrate complex can be determined by integration of the aromatic protons resonances (p-BPA, 7.73 and 7.33 ppm; p-BPA-carbohydrate complex, 7.5 and 7.2 ppm) in the 1H-NMR spectrum using D2O buffered to physiological pH as the solvent. For example, L-p-boronophenylalanine fructose complex has a pK of 3.2 while the meso-erythitol complex has a pK of 1.0, the threitol complex has a pK of 1.3, the adonitol complex has a pK of 1.7, the arabitol complex has a pK of 2.3, the rhamnitol complex has a pK of 2.3, the xylitol complex has a pK of 2.5, the talitol complex has pK of 2.4, the dulcitol complex has a pK of 2.7, the mannitol complex has a pK of 2.7, the 1-aminodulcitol complex has a pK of 2.9, the sorbitol complex has a pK of 3.2, the 1-aminosorbitol complex has a pK of 3.4, the isomaltitol complex has a pK of 3.4, the cellobiitol complex has a pK of 3.5, the lactitol complex has a pK of 3.7, the maltitol complex has a pK of 3.9, the volemitol complex has a pK of 2.9, the perseitol complex has a pK of 3.1, the glucoheptitol complex has a pK of 3.9, and the alpha,alpha-glucooctitol complex has a pK of 4.1.
L-p-Boronophenylalanine-polyol or -aminopolyol complexes are prepared by combining 0.5 mM of alpha-deuterated or alpha-hydrogenated L-p-BPA with between 1.00 and 1.05 equivalents of complexing agent (with the exception of poorly complexing polyols and carbohydrates, in which up to 4.3 equivalents of polyol or carbohydrates are used) in 2 mL of water. One equivalent of NaOH (1 mL of 0.5 M) is then added and the slurry gently warmed if needed in order to dissolve all solids. The pH is then monitored and reduced to between 7.5 and 7.3 by the addition of Dowex50WX4-50 ion exchange resin. The clear solution is then passed through a 0.2 μm syringe filter and then freeze-dried to constant weight. ^1H and ^13C NMR spectra are recorded on a GE 300 MHz FT-NMR spectrometer with D2O buffered at 7.4 [Bates, R G, Bower, V E. 1956. Alkaline solutions for pH control. Anal. Chem. 28:1322-1324] as the solvent. The binding constants are calculated at three different concentrations by integration of the free L-p-BPA aromatic protons (7.73 and 7.33 ppm) compared with those of the L-p-BPA complexes (7.5 and 7.2 ppm). Spectra of the 1:1 complexes are reported.

Compound	pK of the p-BPA:carbohydrate/polyol complex (binding constant)
L-p-boronophenylalanine-persietol complex [perseitol complex]	3.1
L-p-boronophenylalanine-dulcitol complex	2.7
L-p-boronophenylalanine-sorbitol complex	3.2
L-p-boronophenylalanine-xylitol complex	2.5
L-p-boronophenylalanine-lactitol complex	3.7
L-p-boronophenylalanine-α,α-glucooctitol complex [alpha,alpha-glucooctitol complex]	4.1
L-p-boronophenylalanine-α-glucoheptitol complex	3.9
L-p-boronophenylalanine-rhamnitol complex	2.3
L-p-boronophenylalanine-aminodulcitol complex [1-aminodulcitol complex]	2.9
L-p-boronophenylalanine-isomaltitol complex	3.4
L-p-boronophenylalanine-aminosorbitol complex [1-aminosorbitol complex]	3.4
L-p-boronophenylalanine-cellobiitol complex	3.5
L-p-boronophenylalanine-volemitol complex	2.9
L-p-boronophenylalanine-mannitol complex	2.7
L-p-boronophenylalanine-maltitol complex	3.9
L-p-boronophenylalanine fructose complex [reference compound]	3.2

Assay: not given
Conditions: physiological pH; cited from earlier work

Compound	water solubility
N[C@@H](Cc1ccc(B(O)O)cc1)C(=O)O [BPA, para-boronophenylalanine]	poor water solubility

— US20070104648A1, “Compositions, methods of preparing amino acids, and nuclear magnetic resonance spectroscopy” (Glyconix Corporation, priority 2005, published 2007)
